Literature values as cited in patent US20210379059A1, “COMBINATION OF SUBSTANCES FOR REGENERATIVE THERAPY IN PATIENTS WITH TYPE 1 DIABETES MELLITUS” (Levicure Ltd., priority 2018, published 2021).
Like-named read-outs stand apart in the source and are kept apart here.

Key:
β-cells [1] = conditions: mouse cell cultures
β-cells [2] = conditions: human cell cultures
[3] = system: adult patients with type 1 diabetes; conditions: 8 weeks, despite a reduction of total and lunch dose of insulin

Compound | regeneration of β-cells (β-cells [1]) | regeneration of β-cells (β-cells [2]) | blood glucose levels [3]
NCCCC(=O)O [GABA, gamma-aminobutyric acid] | provide the regeneration of β-cells | provide the regeneration of β-cells | 
N[C@@H](CC(=O)N1CCn2c(nnc2C(F)(F)F)C1)Cc1cc(F)c(F)cc1F [Sitagliptin] |  |  | significantly reduced
